Assay [1] has as its target T1, Avi-KRAS G12D (1-169) GppNHp/RAF1 RBD-3xFLAG (52-151) (Homo sapiens, UniProt P01116, G12D).
T1 construct: Avi-KRAS G12D (1-169)
In words: Raf1-KRAS G12D-GppNHP disruption HTRF assay (Biological Example 1). The assay is classed as binding. An outline of the steps: (§1)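 Using HTRF, the loss of KRAS–effector RAF1 complex was quantified in 50 mM Tris pH 7.5 buffer with 100 mM NaCl and 0.1% BSA. The protein step and reagent step ran 1 h each at room temperature. Activity normalized with DMSO taken as 100%.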
In general terms: TR-FRET usually uses a lanthanide donor and a delayed reading to cut background.

The target of assay [2] is T2, Avi-KRAS G12R (1-169) GppNHp/RAF1 RBD-3xFLAG (52-151) (Homo sapiens, UniProt P01116, G12R).
T2 construct: Avi-KRAS G12R (1-169)
T2 sequence (P01116 1-169 isoform P01116-2 G12R): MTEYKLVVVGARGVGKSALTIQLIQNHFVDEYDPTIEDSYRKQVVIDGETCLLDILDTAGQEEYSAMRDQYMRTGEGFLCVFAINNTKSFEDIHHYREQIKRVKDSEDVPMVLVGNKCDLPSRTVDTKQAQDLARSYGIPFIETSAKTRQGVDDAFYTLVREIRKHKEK
In words: Raf1-KRAS G12R-GppNHP disruption HTRF assay (Biological Example 1). The assay is classed as binding. An outline of the steps: as §1

Assay [3] has as its target T3, Avi-KRAS G12V (1-169) GppNHp/RAF1 RBD-3xFLAG (52-151) (Homo sapiens, UniProt P01116, G12V).
T3 construct: Avi-KRAS G12V (1-169)
In words: Raf1-KRAS G12V-GppNHP disruption HTRF assay (Biological Example 1). Format: binding. An outline of the steps:
as §1

Assay [4] deals with T4, Avi-KRAS WT (1-169) GppNHp/RAF1 RBD-3xFLAG (52-151) (Homo sapiens, UniProt P01116).
T4 construct: Avi-KRAS WT (1-169)
T4 sequence (P01116 1-169 isoform P01116-2): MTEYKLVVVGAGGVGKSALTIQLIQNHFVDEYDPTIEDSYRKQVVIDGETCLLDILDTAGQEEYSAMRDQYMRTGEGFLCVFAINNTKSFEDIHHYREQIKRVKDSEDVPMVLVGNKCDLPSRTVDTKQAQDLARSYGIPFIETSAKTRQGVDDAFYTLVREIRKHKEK
Briefly: Raf1-KRAS WT-GppNHP disruption HTRF assay (Biological Example 1). Format: binding. An outline of the steps: as §1

The test system of a further assay is GP2d cells (KRAS G12D). Briefly: Cell-based pERK HTRF assay in GP2d cell (Biological Example 2). The settings on record: GP2d (KRAS G12D) cells, pERK HTRF. An outline of the steps:
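GP2d (KRAS G12D) cells were plated in DMEM/10% FBS and treated the next day for 60 min with compounds. Dosing used 9-point half-log series starting at 1 μM or 100 nM in 0.25% DMSO. Lysates were read by HTRF pERK (d2/Eu cryptate antibodies) after 4–24 h at room temperature, with excitation at 320 nm and emission at 615 nm.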

In another assay the test system is SW620 cells (KRAS G12V). In words: Cell-based pERK HTRF assay in SW620 cell (Biological Example 4). The settings on record: pERK HTRF. An outline of the steps: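 Read-out: HTRF pERK signal (excitation 320 nm, emission 615 nm) from lysates of SW620 cells after 4 h compound exposure. Dose range was 9 points, half-log steps from 1 μM, in 0.25% DMSO; antibody incubation ran 4–24 h at room temperature.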

Setting [5] is: Homo sapiens, SW-620, SW620 (KRAS G12V) cells.
Setting [6] is: KRAS G12D, GppNHp-loaded, class symbols.
The mark [7] stands for this setting: KRAS G12R, GppNHp-loaded, class symbols.
[8] abbreviates: KRAS G12V, GppNHp-loaded, class symbols.
[9] abbreviates: KRAS WT, GppNHp-loaded, class symbols.
Where [10] appears, read: Homo sapiens, SW-620, SW620 (KRAS G12V) cells, class symbols.

pIC50: −log10 of the molar value.

The results in this text go back to patent US20260042764A1, “COMPOSITIONS AND METHODS FOR INHIBITION OF KRAS” (TheRas, Inc., priority 2022, published 2026).

T3 sequence (P01116 1-169 isoform P01116-2 G12V): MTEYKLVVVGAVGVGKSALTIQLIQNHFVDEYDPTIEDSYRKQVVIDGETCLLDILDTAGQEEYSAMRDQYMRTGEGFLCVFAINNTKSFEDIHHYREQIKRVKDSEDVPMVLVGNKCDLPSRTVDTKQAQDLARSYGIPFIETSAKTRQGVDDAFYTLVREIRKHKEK
T1 sequence (P01116 1-169 isoform P01116-2 G12D): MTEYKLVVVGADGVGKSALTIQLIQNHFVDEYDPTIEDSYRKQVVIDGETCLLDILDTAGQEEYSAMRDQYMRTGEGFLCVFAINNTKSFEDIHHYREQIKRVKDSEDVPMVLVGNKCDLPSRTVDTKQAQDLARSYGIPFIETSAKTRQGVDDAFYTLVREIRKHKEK

One may read the pIC50 as the negative decadic logarithm of the IC50, by convention in mol/L. As to `CC(C)C(=O)N1CC[C@](C)(N(C)c2nc(OC[C@@]34CCCN3C[C@H](F)C4)nc3c(F)c(-c4ccc(F)c5sc(N)c(C#N)c45)c(C(F)(F)F)cc23)C1` [Compound 499], the pIC50 in assay [1] (KRAS G12D-GppNHp/RAF1 RBD HTRF) is 6.00 to 7.00; in assay [2] (KRAS G12R-GppNHp/RAF1 RBD HTRF), 5.00 to 6.00; in assay [3] (KRAS G12V-GppNHp/RAF1 RBD HTRF), 5.00 to 6.00; in assay [4] (KRAS WT-GppNHp/RAF1 RBD HTRF), 5.00 to 6.00; with GP2d cells (KRAS G12D) (GP2d), greater than 7.00; in the assay on SW620 cells (KRAS G12V) (setting [5]), greater than 7.00.
As for `CCN(c1nc(OC[C@@]23CCCN2C[C@H](F)C3)nc2c(F)c(-c3ccc(F)c4sc(N)c(C#N)c34)c(C(F)(F)F)cc12)[C@H]1C[C@@H](COC)N(C(=O)N(C)C)C1` (atropisomer, axis not shown) [Compound 713], the negative-log IC50 (pIC50) in assay [1] (setting [6]) was 6.00 to 7.00; in assay [2] (setting [7]), 6.00 to 7.00; in assay [3] (setting [8]), 6.00 to 7.00; in assay [4] (setting [9]), 6.00 to 7.00; in the assay on GP2d cells (KRAS G12D) (GP2d, class symbols) it was greater than 7.00; with SW620 cells (KRAS G12V) (setting [10]) it was greater than 7.00.
For the molecule `CCN(c1nc(OC[C@]23C[C@@H](F)CN2CC2(CC2)C3)nc2c(F)c(-c3ccc(F)c4sc(N)c(C#N)c34)c(C(F)(F)F)cc12)[C@H]1CCN(C(=O)C(C)C)C1` [Compound 566], the pIC50 is 6.00 to 7.00 in assay [1] (setting [6]); 6.00 to 7.00 in assay [2] (setting [7]); 6.00 to 7.00 in assay [3] (setting [8]); 6.00 to 7.00 in assay [4] (setting [9]); greater than 7.00 with GP2d cells (KRAS G12D) (GP2d, class symbols); greater than 7.00 in the assay on SW620 cells (KRAS G12V) (setting [10]).
Regarding `C[C@H]1COC[C@H](C)N1c1nc(OC[C@@]23CCCN2C[C@H](F)C3)nc2c(F)c(-c3ccc(F)c4sc(N)c(C#N)c34)c(C(F)(F)F)cc12` [Compound 200], the pIC50 was 5.00 to 6.00 in assay [1] (KRAS G12D, GppNHp-loaded, Table 11); 5.00 to 6.00 in assay [2] (KRAS G12R, GppNHp-loaded, Table 11); 5.00 to 6.00 in assay [3] (KRAS G12V, GppNHp-loaded, Table 11); 5.00 to 6.00 in assay [4] (KRAS WT, GppNHp-loaded, Table 11); greater than 7.00 in the assay on GP2d cells (KRAS G12D) (GP2d); 6.00 to 7.00 with SW620 cells (KRAS G12V) (setting [5]).
As to `CCN(c1nc(OC[C@@]23CCCN2C[C@H](F)C3)nc2c(F)c(-c3ccc(F)c4sc(N)c(C#N)c34)c(C(F)(F)F)cc12)[C@H]1CCN(C(=O)C2CCN(C(C)=O)CC2)C1` (atropisomer, axis not shown) [Compound 575], the pIC50 in assay [1] (setting [6]) was greater than 7.00; in assay [2] (setting [7]), greater than 7.00; in assay [3] (setting [8]) it was greater than 7.00; in assay [4] (setting [9]), greater than 7.00; in the assay on GP2d cells (KRAS G12D) (GP2d, class symbols), greater than 7.00; in the assay on SW620 cells (KRAS G12V) (setting [10]), greater than 7.00.
In the case of `CCN(c1nc(OC[C@@]23CCCN2C[C@H](F)C3)nc2c(F)c(-c3ccc(F)c4sc(N)c(C#N)c34)c(C(F)(F)F)cc12)[C@H]1CCS(=O)(=O)C1` (atropisomer, axis not shown) [Compound 491], the pIC50 in assay [1] (KRAS G12D-GppNHp/RAF1 RBD HTRF) was 5.00 to 6.00; in assay [2] (KRAS G12R-GppNHp/RAF1 RBD HTRF), less than 5.00; in assay [3] (KRAS G12V-GppNHp/RAF1 RBD HTRF), less than 5.00; in assay [4] (KRAS WT-GppNHp/RAF1 RBD HTRF), 5.00 to 6.00; in the assay with GP2d cells (KRAS G12D), 6.00 to 7.00; in the assay on SW620 cells (KRAS G12V) (SW620 (KRAS G12V) cells) it was 6.00 to 7.00.
For `C[C@@H]1C[C@H](N(C)c2nc(OC[C@@]34CCCN3C[C@H](F)C4)nc3c(F)c(-c4ccc(F)c5sc(N)c(C#N)c45)c(C(F)(F)F)cc23)CN1C(=O)C1CC1` [Compound 443], the pIC50 is 6.00 to 7.00 in assay [1] (KRAS G12D-GppNHp/RAF1 RBD HTRF); 6.00 to 7.00 in assay [2] (KRAS G12R-GppNHp/RAF1 RBD HTRF); 6.00 to 7.00 in assay [3] (KRAS G12V-GppNHp/RAF1 RBD HTRF); 6.00 to 7.00 in assay [4] (KRAS WT-GppNHp/RAF1 RBD HTRF); greater than 7.00 with GP2d cells (KRAS G12D) (GP2d); greater than 7.00 in the assay with SW620 cells (KRAS G12V) (setting [5]).
Consider `CCN(c1nc(OC[C@@]23CCCN2C[C@H](F)C3)nc2c(F)c(-c3ccc(F)c4sc(N)c(C#N)c34)c(C(F)(F)F)cc12)[C@H]1C[C@@H](C)N(C(C)=O)C1` [Compound 446], for which the negative-log IC50 (pIC50) in assay [1] (KRAS G12D-GppNHp/RAF1 RBD HTRF) is greater than 7.00; in assay [2] (KRAS G12R-GppNHp/RAF1 RBD HTRF) it was 6.00 to 7.00; in assay [3] (KRAS G12V-GppNHp/RAF1 RBD HTRF), 6.00 to 7.00; in assay [4] (KRAS WT-GppNHp/RAF1 RBD HTRF), 6.00 to 7.00; with GP2d cells (KRAS G12D) (GP2d), greater than 7.00; with SW620 cells (KRAS G12V) (setting [5]), greater than 7.00.
